How the values were obtained:
[1] = tested on: neurofibrillary tangles (NFTs) in AD brain slices; experiment: Autoradiography blocking study of [18F]Co. No. 1 on human AD brain slices; type: binding; settings: 1 μM cold blocker, Braak stage V-VI slices
Method: Air-dried frozen, 20-μm-thick slices of an AD-patient (Braak stage V-VI) were incubated for 60 min with [^18F]Co. No. 1 (7.4 kBq/500 JpL per section) and subsequently washed with mixtures of phosphate buffered saline (PBS) and ethanol as described elsewhere (Xia C F, Arteaga J, Chen G, et al. [(18)F]T807, a novel tau positron emission tomography imaging agent for Alzheimer's disease. Alzheimers Dement. 2013, 1-11, doi: 10.1016/i.ialz.2012.11.008). To assess specificity of binding, slices were incubated with tracer in the presence of 1 μM of authentic T808 or […].
No. 1. After drying, slices were exposed to a phosphor storage screen (super-resolution screen, Perkin Elmer). Screens were read in a Cyclone Plus system (Perkin Elmer, Waltham, Mass., U.S.A.) and analyzed using Optiquant software. Results are expressed as digital light units per square mm (DLU/mm^2). Adjacent AD slices were immunostained with anti-tau (AT8) and anti-Aβ antibodies (AG8), to correlate with [^18F]Co. No. 1 binding. […] The binding pattern corresponds well with the Tau pathology as detected with AT8 IHC on adjacent slides (see FIG. 1). To assess the specificity of the tracer binding to neurofibrillary tangles (NFTs), blocking studies with authentic Co. No. 1 and T808 were performed. […] Blocking percentages were calculated as (DLU/mm^2 in the presence of […] blocker)/(DLU/mm^2 tracer only).

[2] = molecular target: T1, extracted human amyloid-beta aggregates (Homo sapiens, UniProt P05067); experiment: Competitive radioligand binding assay with [3H]-AV-45 on amyloid plaque preps from human AD brain; settings: for Ki: calculated from IC50, KD Aβ 7.85 nM for 3H-AV45, 10 nM RL; for binding to extracted human amyloid-beta aggregates: up to 10 μM, radiolabel displacement of [3H]-AV-45
T1 construct: from tissue; host or cells: human AD brain, occipital cortex
Method: Enriched aggregated β-amyloid preps were prepared from frozen human AD brain samples (10 g—occipital cortex with high amyloid plaques load) that were homogenized with 7-fold vol of cold homogenization buffer (250 mM sucrose, 20 mM Tris base, 1 mM EDTA, 1 mM EGTA and PhosSTOP phosphatase and cOmplete EDTA-free protease inhibitor) on ice. After centrifugation at 27 000×g for 20 min at 4° C. cell debris was removed. Supematant containing amyloid plaques was aliquoted and stored at −80° C.
(§1) The competitive radioligand binding assays measure the binding of a radiolabeled reference ligand in the presence of a dose response concentration range of test compounds.
(§2) Values for half-maximal inhibitory concentration (IC50) were determined from displacement curves of at least two independent experiments using GraphPad Prism software (GraphPad Software, San Diego, Calif.).
To determine compound binding to aggregated β-amyloid a similar assay was put in place but with some minor modifications. Briefly, amyloid preps were diluted to 150 μg protein/ml in 50 mM Tris with 0.1% BSA and 5% ethanol. ^3H-AV-45 (florbetapir-specific activity; 45.95 Ci/mmol) was added at a final concentration of 10 nM to increasing amounts of test compound in the presence of 30 μg protein of amyloid plaques prep. Nonspecific binding was determined in the presence of 500 μM Thioflavin T. After 150 min incubation at room temperature, the binding mixtures were filtered over GF/B glass filters. The filters were washed three times with PBS buffer containing 20% ethanol. Subsequent steps were identical to those described for the aggregated tau preps.

[3] = tested on: extracted human tau (aggregated tau, PHF); experiment: Competitive radioligand binding assay with [3H]-T808 on aggregated tau preps from human AD brain; settings: Aβ Ki versus Tau Ki
Method: (§3) Enriched aggregated tau fractions were prepared according to a slightly modified version of the protocol described by Greenberg and Davies (Greenberg S G, Davies P. A preparation of Alzheimer paired helical filaments that display distinct tau proteins by polyacrylamide gel electrophoresis. Proc. Natl. Acad. Sci. 1990; 87: 5827-5831) using human AD brain tissue (occipital cortex with high tau fibril load). Briefly, frozen human AD brain samples (˜10 g) were homogenized with 10 vol of cold homogenization buffer (10 mM Tris, 800 mM NaCl, 1 mM EGTA, 10% sucrose, pH 7.4 containing PhosSTOP phosphatase and cOmplete EDTA-free protease inhibitor (Roche, Vilvoorde, Belgium)) on ice. After centrifugation at 27 000×g for 20 min at 4° C. the supernatant was recovered and 1% (w/v) N-lauroylsarcosine and 1% (v/v) 2-mercaptoethanol were added. The N-lauroylsarcosine/2-mercaptoethanol supernatant was incubated for 2 h at 37° C. while shaking on an orbital shaker. Subsequently, ultracentrifugation at 108 000×g for 1.5 h at room temperature enriched aggregated tau in the pellet. Supematant was removed and the pellet was carefully rinsed twice with a small amount of TBS (50 mM Tris, 150 mM NaCl, pH 7.4). Finally, the aggregated tau pellet was recovered in TBS and resuspended to ensure sample homogeneity. Small aliquots were stored at −80° C.
as §1
(§4) Briefly, aggregated tau preps were diluted to 100 μg protein/ml in PBS buffer with 5% ethanol. In a 96-well format, ^3H-T808 (specific activity; 32.97 Ci/mmol) was added at a final concentration of 10 nM to increasing amounts of test compound in the presence of 20 μg protein of aggregated tau prep. Nonspecific binding was defined as the number of counts remaining in the presence of 50 μM Thioflavin T (common beta sheet binder). After 2 h incubation at room temperature, the unbound ligand is removed by filtration of the binding mixtures over GF/B glass filters using a Filtermate 96 harvester instrument (Perkin Elmer, Zaventem, Belgium). The filters were washed three times with PBS buffer containing 20% ethanol. After overnight drying of the filter plate, Microscint O liquid (Perkin Elmer) was added and the amount of radiolabeled ligand bound to the fibrils is measured by liquid scintillation counting in a Topcount instrument (Packard Instrument Company, Connecticut, USA)
as §2

[4] = molecular target: T2, extracted human tau (aggregated tau, PHF) (Homo sapiens, UniProt P10636); experiment: as above; settings: for Ki: mean of at least two measurements with SD, calculated from IC50, KD PHF 6.275 nM, 10 nM RL; for IC50: radiolabel displacement of [3H]-T808, 10 nM, read-out: pIC50, binding to extracted human tau (converted)
T2 construct: Tau Ki; other: mean of at least two measurements with SD; other: radiolabel displacement of [3H]-T808, 10 nM
Method: as §3, §1, §4, §2

[5] = MicroPET imaging, rhesus monkey (experiment 2); type: in vivo, rhesus monkey (Macaca mulatta); settings: baseline scan
Method: A dynamic 120-min μPET scan with [^18F]Co. No. 1 or [^18F]T807 was performed with a Focus 220 μPET scanner on a male rhesus monkey (6 y-old Macaca mulatta, 7.6 kg), that was sedated with ketamine (Ketalar®) and xylazine (Rompun®) via intramuscular (IM) injection. During scanning the monkey received repeatedly an additional dose of ketamine/xylazine via i.v. injection. O2 saturation in blood, breathing frequency and heartbeat frequency were monitored during the entire experiment. The head of the animal was placed central in the field of view of the μPET scanner. Scans were acquired in list mode and Fourier rebinned in 24 time frames (4×15 s, 4×60 s, 5×180 s, 8×300 s, 3×600 s). Data were reconstructed using a 3D maximum a posteriori (3D-MAP) iterative reconstruction. TACs of the whole brain were generated using VOIs with PMOD software. Radioactivity concentration in the brain is expressed as SUV as a function of time after tracer injection. Scans were started immediately after i.v. injection of 185 MBq of [^18F]Co. No. 1 or [^18F]T807 via the vena saphena of the right leg. Results of the 120-min baseline scan of [^18F]Co. No. 1 and [^18F]T807 are shown in FIGS. 7a and 7b, respectively. […] TACs of the baseline scan of [^18F]T807 in the brain show a slower initial brain uptake (SUV value of ˜1.3, time to peak uptake: 15 min) and wash-out (FIG. 8). […]

[6] = MicroPET imaging, rhesus monkey (experiment 1); type: in vivo, rhesus monkey (macaca mulatta); settings: baseline scan
Method: A dynamic 120-min microPET scan with [^18F]Co. No. 1 or [^18F]T807 was performed on a Focus™ 220 microPET scanner (Concorde Microsystems, Knoxville, Tenn., USA) on, respectively, a female rhesus monkey (9 year-old macaca mulatta, 5.3 kg) and a male rhesus monkey (6 year-old macaca mulatta, 7.6 kg), that was sedated with ketamine (Ketalar®) and xylazine (Rompun®) via intramuscular (IM) injection. During scanning the monkey received repeatedly an additional dose of ketamine/xylazine via IV injection. The O2 saturation in the blood, the breathing frequency and heartrate were monitored during the entire experiment. The head of the animal was placed central, in the field of view, of the microPET scanner. Scans were acquired in list mode and acquisition data were Fourier rebinned in 24 time frames (4×15 s, 4×60 s, 5×180 s, 8×300 s, 3×600 s). Data were reconstructed using a 3D maximum a posteriori (3D-MAP) iterative reconstruction. TACs of the whole brain, corpus callosum, cerebellum and entorhinal cortex were generated using VOIs with PMOD software. Radioactivity concentration in the brain is expressed as SUV as a function of time after tracer injection (FIGS. 5a and 5b). Scans were started immediately after IV injection of 185 MBq of [^18F]Co. No. 1 of [^18F]T807 via the vena saphena of the right leg. […]

[7] = MicroPET imaging, Wistar rats; type: in vivo; settings: baseline scan, whole brain, IV 50 MBq
Method: Dynamic 120 min microPET scans were performed on a Focus™ 220 microPET scanner (Concorde Microsystems, Konxville, Tenn., USA) on three female Wistar rats simultaneously, which were kept under gas anesthesia during the whole procedure (2.5% isoflurane in 02 at 1 L/min flow rate). The head of the animals was placed central, in the field of view, of the microPET scanner. Scans were acquired in list mode and acquisition data were Fourier rebinned in 24 time frames (4×15 s, 4×60 s, 5×180 s, 8×300 s, 3×600 s). Data, which were 3D maximum a posteriori (3D-MAP) reconstructed, were manually aligned with a rat brain [^18F]FDG template in Paxinos coordinates using an affine transformation, to allow predefined volumes of interest (VOIs) analysis. Time-activity curves (TACs) of the whole brain were generated using VOIs with PMOD software (v 3.2, PMOD Technologies Ltd., Zdtrich, Switzerland). Radioactivity concentration in the brain was expressed as standardized uptake value (SUV, calculated as (radioactivity in Bq in brain/mL)/(total injected dose (Bq)/body weight in g)) as a function of time after tracer injection. Scans were started immediately after IV injection of 50 MBq [^18F]Co. No. 1 or [^18F]T807 (n=3/tracer). […]

T2 sequence (P10636 623-695 limits assumed): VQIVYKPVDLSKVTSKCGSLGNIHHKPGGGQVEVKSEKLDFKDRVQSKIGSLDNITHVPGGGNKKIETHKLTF
T1 sequence (P05067 672-713 limits assumed): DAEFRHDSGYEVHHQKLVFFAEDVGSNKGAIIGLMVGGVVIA

Compound	inhibition of [18F]Co. No. 1 binding to AD brain slices [1] [%]	Ki [2] [µM]	binding to extracted human amyloid-beta aggregates [2]	Selectivity (ratio) [3]	Ki [4] [µM]	IC50 [4] [µM]	time to peak uptake ([5]; brain) [min]	initial brain uptake, SUV value ([5]; i.v. 185 MBq, male monkey)	wash-out from brain [6]	initial brain uptake, SUV value ([6]; brain, IV 185 MBq)	initial brain uptake, SUV value in the brain [7]
FCCC1CCN(c2ccn3c(n2)nc2ccccc23)CC1 [T808, 2-[4-(2-fluoroethyl)-1-piperidinyl]-pyrimido[1,2-a]benzimidazole, reference compound]	98	–	–	–	–	–	–	–	–	–	–
Fc1ccc2nc(Nc3ccncc3)ccc2n1 [Co. No. 3]	–	> 4.4	no measurable binding	>380	0.0113 ± 0.0028	0.0251	–	–	–	–	–
Cc1cnccc1Nc1ccc2nc(F)ccc2n1 [Co. No. 2]	–	> 4.4	no measurable binding	>325	0.0135 ± 0.0022	0.0316	–	–	–	–	–
Cc1cc(Nc2ccc3nc(F)ccc3n2)ccn1 [Co. No. 1]	99	> 4.4	no measurable binding	>540	0.0079 ± 0.0025	0.02	–	–	–	–	–
Fc1ccc(-c2ccc3c(c2)[nH]c2ccncc23)cn1 [[^18F]T807, 7-(6-fluoropyridin-3-yl)-5H-pyrido[4,3-b]indole]	–	–	–	–	–	–	15	~1.3	slower wash-out	~1.3	~1.6
